Measured values taken from US20250098679A1, “HERBICIDAL PYRIDONE DERIVATIVES” (SYNGENTA CROP PROTECTION AG, priority 2021, published 2025).

Tests used:
Assay type in all cases: in vivo
Zea mays (ZEAMX) = test: Post-emergence Test, Zea mays (ZEAMX); parameters: key to percentage damage caused to the plant, ZEAMX (five-point scale): 5=81-100%, 4=61-80%, 3=41-60%, 2=21-40%, 1=0-20% damage; conditions: evaluated after 13 days
Procedure: (§1) Seeds of a variety of test species are sown in standard soil in pots (Setaria faberi (SETFA), Echinochloa crus-galli (ECHCG), Zea mays (ZEAMX), Ipomoea hederacea (IPOHE), Amaranthus palmeri (AMAPA), Amaranthus retoflexus (AMARE)). After 8 days cultivation under controlled conditions in a glasshouse (at 24° C./16° C., day/night; 14 hours light; 65% humidity), the plants are sprayed with an aqueous spray solution derived from the formulation of the technical active ingredient in acetone/water (50:50) solution containing 0.5% Tween 20 (polyoxyethelyene sorbitan monolaurate, CAS RN 9005-64-5). Compounds are applied at 1000 g/ha unless otherwise stated. The test plants are then grown in a glasshouse under controlled conditions in a glasshouse (at 24° C./16° C., day/night; 14 hours light; 65% humidity) and watered twice daily. After 13 days the test is evaluated for the percentage damage caused to the plant. The biological activities are shown in the following table on a five-point scale (5=81-100%; 4=61-80%; 3=41-60%; 2=21-40%; 1=0-20%; -=not tested).

Setaria faberi (SETFA) = test: Post-emergence Test, Setaria faberi (SETFA); parameters: key to percentage damage caused to the plant, SETFA (five-point scale): 5=81-100%, 4=61-80%, 3=41-60%, 2=21-40%, 1=0-20% damage; conditions: evaluated after 13 days
Procedure: as §1

[1] = tested on: Amaranthus palmeri (AMAPA); test: Post-emergence Test, Amaranthus palmeri (AMAPA); parameters: key: 5=81-100%, 4=61-80%, 3=41-60%, 2=21-40%, 1=0-20% damage; conditions: evaluated after 13 days
Procedure: as §1

[2] = tested on: Ipomoea hederacea (IPOHE); test: Post-emergence Test, Ipomoea hederacea (IPOHE); parameters: key to percentage damage caused to the plant, IPOHE (five-point scale): 5=81-100%, 4=61-80%, 3=41-60%, 2=21-40%, 1=0-20% damage; conditions: evaluated after 13 days
Procedure: as §1

[3] = tested on: Amaranthus retoflexus (AMARE); test: Post-emergence Test, Amaranthus retoflexus (AMARE); parameters: key to percentage damage caused to the plant, AMARE (five-point scale): 5=81-100%, 4=61-80%, 3=41-60%, 2=21-40%, 1=0-20% damage; conditions: evaluated after 13 days
Procedure: as §1

[4] = tested on: Echinochloa crus-galli (ECHCG); test: Post-emergence Test, Echinochloa crus-galli (ECHCG); parameters: key to percentage damage caused to the plant, ECHCG (five-point scale): 5=81-100%, 4=61-80%, 3=41-60%, 2=21-40%, 1=0-20% damage; conditions: evaluated after 13 days; for Post-emergence Test ECHCG, percentage damage caused to the plant (five-point scale): 250 g/Ha (*)
Procedure: as §1

| Structure (SMILES) | percentage damage caused to the plant, ZEAMX (five-point scale) (Zea mays (ZEAMX); 1000 g/ha) | percentage damage caused to the plant, SETFA (five-point scale) (Setaria faberi (SETFA); 1000 g/ha) | percentage damage caused to the plant, AMAPA (five-point scale) ([1]; 1000 g/ha) | percentage damage caused to the plant, IPOHE (five-point scale) ([2]; 1000 g/ha) | percentage damage caused to the plant, AMARE (five-point scale) ([3]; 1000 g/ha) | percentage damage caused to the plant, ECHCG (five-point scale) ([4]; 1000 g/ha) | also measured |
| --- | --- | --- | --- | --- | --- | --- | --- |
| CCn1c(Cn2cnc(C(=O)OC)c2C(=O)OC)cc(=O)c(C(=O)O)c1-c1ccc(Cl)c(Cl)c1 [Compound 111, 6-[[4,5-bis(methoxycarbonyl)imidazol-1-yl]methyl]-2-(3,4-dichlorophenyl)-1-ethyl-4-oxo-pyridine-3-carboxylic acid] | 0 | 1 (1=0-20%) | 1 (1=0-20%) | 0 | 1 (1=0-20%) | 2 (2=21-40%) | – |
| CCOC(=O)c1c(-c2ccc(Cl)c(Cl)c2)n(CC)c(Cn2cncn2)cc1=O [Compound 60, ethyl 2-(3,4-dichlorophenyl)-1-ethyl-4-oxo-6-(1,2,4-triazol-1-ylmethyl)pyridine-3-carboxylate] | 0 | 1 (1=0-20%) | 0 | 1 (1=0-20%) | 1 (1=0-20%) | 2 (2=21-40%) | – |
| CCOC(=O)c1c(-c2ccc(Cl)c(Cl)c2)n(CC)c(Cn2ccc(C(F)(F)F)n2)c(Br)c1=O [Compound 23, ethyl 5-bromo-2-(3,4-dichlorophenyl)-1-ethyl-4-oxo-6-[[3-(trifluoromethyl)pyrazol-1-yl]methyl]pyridine-3-carboxylate] | 1 (1=0-20%) | 2 (2=21-40%) | 2 (2=21-40%) | 2 (2=21-40%) | 1 (1=0-20%) | 2 (2=21-40%) | – |
| CCn1c(Cn2ccc(-c3ccncc3)n2)cc(=O)c(C(=O)O)c1-c1ccc(Cl)c(Cl)c1 [Compound 195, 2-(3,4-dichlorophenyl)-1-ethyl-4-oxo-6-[[3-(4-pyridyl)pyrazol-1-yl]methyl]pyridine-3-carboxylic acid] | – | – | – | – | – | – | Post-emergence Test ZEAMX, percentage damage caused to the plant (five-point scale) (Zea mays (ZEAMX); 250 g/Ha (*)): 0; Post-emergence Test ZEAMX, percentage damage caused to the plant (five-point scale) (Zea mays (ZEAMX); 1000 g/ha): 1 (1=0-20%); Post-emergence Test SETFA, percentage damage caused to the plant (five-point scale) (Setaria faberi (SETFA); 1000 g/ha): 2 (2=21-40%); Post-emergence Test AMAPA, percentage damage caused to the plant (five-point scale) ([1]; 250 g/Ha (*)): 0; Post-emergence Test AMAPA, percentage damage caused to the plant (five-point scale) ([1]; 1000 g/ha): 0; Post-emergence Test IPOHE, percentage damage caused to the plant (five-point scale) ([2]; 250 g/Ha (*)): 0; Post-emergence Test IPOHE, percentage damage caused to the plant (five-point scale) ([2]; 1000 g/ha): 1 (1=0-20%); Post-emergence Test AMARE, percentage damage caused to the plant (five-point scale) ([3]; 250 g/Ha (*)): 0; Post-emergence Test AMARE, percentage damage caused to the plant (five-point scale) ([3]; 1000 g/ha): 1 (1=0-20%); Post-emergence Test ECHCG, percentage damage caused to the plant (five-point scale) [4]: 1 (1=0-20%) |
| CCn1c(Cn2cnc(F)c2)cc(=O)c(C(=O)O)c1-c1ccc(Cl)c(Cl)c1 [Compound 77, 2-(3,4-dichlorophenyl)-1-ethyl-6-[(4-fluoroimidazol-1-yl)methyl]-4-oxo-pyridine-3-carboxylic acid] | 1 (1=0-20%) | 0 | 1 (1=0-20%) | 0 | 1 (1=0-20%) | 1 (1=0-20%) | – |
| CCOC(=O)c1nccn1Cc1cc(=O)c(C(=O)O)c(-c2ccc(Cl)c(Cl)c2)n1CC [Compound 110, 2-(3,4-dichlorophenyl)-6-[(2-ethoxycarbonylimidazol-1-yl)methyl]-1-ethyl-4-oxo-pyridine-3-carboxylic acid] | 0 | 1 (1=0-20%) | 0 | 1 (1=0-20%) | 0 | 1 (1=0-20%) | – |
| CCOC(=O)c1c(-c2ccc(Cl)c(Cl)c2)n(CC)c(Cn2cnc(Cl)c2Cl)cc1=O [Compound 68, ethyl 6-[(4,5-dichloroimidazol-1-yl)methyl]-2-(3,4-dichlorophenyl)-1-ethyl-4-oxo-pyridine-3-carboxylate] | 0 | 1 (1=0-20%) | 1 (1=0-20%) | 1 (1=0-20%) | 1 (1=0-20%) | 1 (1=0-20%) | percentage damage caused to the plant, ZEAMX (five-point scale) (Zea mays (ZEAMX); 250 g/Ha): 1 (1=0-20%); percentage damage caused to the plant, SETFA (five-point scale) (Setaria faberi (SETFA); 250 g/Ha): 1 (1=0-20%); percentage damage caused to the plant, AMAPA (five-point scale) ([1]; 250 g/Ha): 1 (1=0-20%); percentage damage caused to the plant, IPOHE (five-point scale) ([2]; 250 g/Ha): 1 (1=0-20%); percentage damage caused to the plant, AMARE (five-point scale) ([3]; 250 g/Ha): 1 (1=0-20%); percentage damage caused to the plant, ECHCG (five-point scale) ([4]; 250 g/Ha): 0 |
| CCn1c(Cn2nc(C(C)(C)C)cc2C(F)(F)F)cc(=O)c(C(=O)O)c1-c1ccc(Cl)c(Cl)c1 [Compound 181, 6-[[3-tert-butyl-5-(trifluoromethyl)pyrazol-1-yl]methyl]-2-(3,4-dichlorophenyl)-1-ethyl-4-oxo-pyridine-3-carboxylic acid] | 0 | 0 | 1 (1=0-20%) | 1 (1=0-20%) | 1 (1=0-20%) | – | percentage damage caused to the plant, ZEAMX (five-point scale) (Zea mays (ZEAMX); 250 g/Ha): 0; percentage damage caused to the plant, AMAPA (five-point scale) ([1]; 250 g/Ha): 0; percentage damage caused to the plant, IPOHE (five-point scale) ([2]; 250 g/Ha): 0; percentage damage caused to the plant, AMARE (five-point scale) ([3]; 250 g/Ha): 0; percentage damage caused to the plant, ECHCG (five-point scale) ([4]; 250 g/Ha): 1 (1=0-20%) |
| CCn1c(Cn2ncc([N+](=O)[O-])c2C)cc(=O)c(C(=O)O)c1-c1ccc(Cl)c(Cl)c1 [Compound 69, 2-(3,4-dichlorophenyl)-1-ethyl-6-[(5-methyl-4-nitro-pyrazol-1-yl)methyl]-4-oxo-pyridine-3-carboxylic acid] | 2 (2=21-40%) | 3 (3=41-60%) | 1 (1=0-20%) | 1 (1=0-20%) | 1 (1=0-20%) | 1 (1=0-20%) | – |
| CCn1c(Cn2ccc(-c3ccc(C)cc3)n2)cc(=O)c(C(=O)O)c1-c1ccc(Cl)c(Cl)c1 [Compound 196, 2-(3,4-dichlorophenyl)-1-ethyl-4-oxo-6-[[3-(p-tolyl)pyrazol-1-yl]methyl]pyridine-3-carboxylic acid] | – | – | – | – | – | – | Post-emergence Test ZEAMX, percentage damage caused to the plant (five-point scale) (Zea mays (ZEAMX); 250 g/Ha (*)): 0; Post-emergence Test ZEAMX, percentage damage caused to the plant (five-point scale) (Zea mays (ZEAMX); 1000 g/ha): 1 (1=0-20%); Post-emergence Test SETFA, percentage damage caused to the plant (five-point scale) (Setaria faberi (SETFA); 1000 g/ha): 0; Post-emergence Test AMAPA, percentage damage caused to the plant (five-point scale) ([1]; 250 g/Ha (*)): 0; Post-emergence Test AMAPA, percentage damage caused to the plant (five-point scale) ([1]; 1000 g/ha): 0; Post-emergence Test IPOHE, percentage damage caused to the plant (five-point scale) ([2]; 250 g/Ha (*)): 0; Post-emergence Test IPOHE, percentage damage caused to the plant (five-point scale) ([2]; 1000 g/ha): 0; Post-emergence Test AMARE, percentage damage caused to the plant (five-point scale) ([3]; 250 g/Ha (*)): 0; Post-emergence Test AMARE, percentage damage caused to the plant (five-point scale) ([3]; 1000 g/ha): 0; Post-emergence Test ECHCG, percentage damage caused to the plant (five-point scale) [4]: 1 (1=0-20%) |
| CCn1c(Cn2ccc(O)n2)cc(=O)c(C(=O)O)c1-c1ccc(Cl)c(Cl)c1 [Compound 167, 2-(3,4-dichlorophenyl)-1-ethyl-6-[(3-hydroxypyrazol-1-yl)methyl]-4-oxo-pyridine-3-carboxylic acid] | 0 | 0 | 1 (1=0-20%) | 0 | 0 | 0 | – |
| CCOC(=O)c1c(-c2ccc(Cl)c(Cl)c2)n(CC)c(Cn2cnc(C#N)n2)cc1=O [Compound 54, ethyl 6-[(3-cyano-1,2,4-triazol-1-yl)methyl]-2-(3,4-dichlorophenyl)-1-ethyl-4-oxo-pyridine-3-carboxylate] | 1 (1=0-20%) | 1 (1=0-20%) | 1 (1=0-20%) | 0 | 1 (1=0-20%) | 1 (1=0-20%) | – |
